Each compound was assayed against JAK1 (Homo sapiens (Human), UniProt P23458) (assay: Jak Biochemical HTRF Assay, JAK1). Conditions: HTRF biochemical assay, GST-tagged catalytic domain; top concentration tested […]; read-out: JAK1 IC50.
Source text: Jak Biochemical HTRF Assay Protocol
Subsequent reagent additions employed an Agilent Bravo.

JAK1, sequence (P23458 875-1153): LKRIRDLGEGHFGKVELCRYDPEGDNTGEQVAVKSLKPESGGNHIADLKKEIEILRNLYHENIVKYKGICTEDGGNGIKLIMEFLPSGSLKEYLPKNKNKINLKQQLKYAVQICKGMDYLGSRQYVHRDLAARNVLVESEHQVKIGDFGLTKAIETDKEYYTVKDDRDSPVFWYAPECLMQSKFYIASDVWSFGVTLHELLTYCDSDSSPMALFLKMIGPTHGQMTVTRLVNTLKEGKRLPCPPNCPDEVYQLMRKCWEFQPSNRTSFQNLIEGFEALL

Q: How did the IC50 turn out when `N#CCC1(n2cc(C(N)=O)c(Nc3ccccc3)n2)CCN(Cc2cccc(C#N)c2)CC1` [Example 21-3, 1-[1-(3-cyanobenzyl)-4-(cyanomethyl)piperidin-4-yl]-3-(phenylamino)-1H-pyrazole-4-carboxamide] was run?
A: The IC50 was 79 nM.

Q: Which IC50 does the source give for `N#CCC1(n2cc(C(N)=O)c(Nc3ccccc3)n2)CCN(Cc2cc3ccccc3o2)CC1` [Example 21-20, 1-[1-(1-benzofuran-2-ylmethyl)-4-(cyanomethyl)piperidin-4-yl]-3-(phenylamino)-1H-pyrazole-4-carboxamide] here?
A: The IC50 was 10 nM.

Q: For `N#CCC1(n2cc(C(N)=O)c(Nc3ccnc(F)c3)n2)CCN(CCc2ccccc2)CC1` [Example 22-64, 1-[4-(cyanomethyl)-1-(2-phenylethyl)piperidin-4-yl]-3-[(2-fluoropyridin-4-yl)amino]-1H-pyrazole-4-carboxamide], which IC50 is on record?
A: Its IC50 is 4 nM.

Q: For `COc1ccccc1CN1CCC(CC#N)(n2cc(C(N)=O)c(Nc3ccnc(F)c3)n2)CC1` [Example 22-66, 1-[4-(cyanomethyl)-1-(2-methoxybenzyl)piperidin-4-yl]-3-[(2-fluoropyridin-4-yl)amino]-1H-pyrazole-4-carboxamide], which IC50 is on record?
A: The IC50 was 2 nM.

Q: How did the IC50 turn out when `N#CCC1(n2cc(C(N)=O)c(Nc3ccnc(F)c3)n2)CCN(Cc2ccc(O)nc2)CC1` [Example 22-68, 1-{4-(cyanomethyl)-1-[(6-hydroxypyridin-3-yl)methyl]piperidin-4-yl}-3-[(2-fluoropyridin-4-yl)amino]-1H-pyrazole-4-carboxamide] was run?
A: Its IC50 is 0.1 nM.

Q: `CC(OC(=O)N1CCC(CC#N)(n2cc(C(N)=O)c(Nc3ccc(F)cc3)n2)CC1)C1CC1` (centres unmarked) [Example 30-12, 1-cyclopropylethyl 4-(4-carbamoyl-3-(4-fluorophenylamino)-1H-pyrazol-1-yl)-4-(cyanomethyl)piperidine-1-carboxylate] was tested. Which IC50 did it give?
A: Its IC50 is 6 nM.

Q: Which IC50 does the source give for `N#CCC1(n2cc(C(N)=O)c(Nc3ccnc(F)c3)n2)CCN(C(=O)OC2CCOC2)CC1` (centres unmarked) [Example 30-16, tetrahydrofuran-3-yl 4-{4-carbamoyl-3-[(2-fluoropyridin-4-yl)amino]-1H-pyrazol-1-yl}-4-(cyanomethyl)piperidine-1-carboxylate] here?
A: Its IC50 is 0.9 nM.

Q: `N#CCC1(n2cc(C(N)=O)c(Nc3ccc(S(=O)(=O)C(F)(F)F)cc3)n2)CCN(C(=O)OC2COC2)CC1` [Example 30-26, oxetan-3-yl 4-(4-carbamoyl-3-(4-(trifluoromethylsulfonyl)phenylamino)-1H-pyrazol-1-yl)-4-(cyanomethyl)piperidine-1-carboxylate] was tested. Which IC50 did it give?
A: The IC50 was 0.2 nM.

Q: With `N#CCC1(n2cc(C(N)=O)c(Nc3ccccc3)n2)CCN(C(=O)OCCN2CCOCC2)CC1` [Example 30-41, 2-morpholin-4-ylethyl 4-[4-carbamoyl-3-(phenylamino)-1H-pyrazol-1-yl]-4-(cyanomethyl)piperidine-1-carboxylate] as the compound, how does the IC50 read?
A: The IC50 was 31 nM.

Q: With `N#CCC1(n2cc(C(N)=O)c(Nc3ccccc3)n2)CN(C(=O)OCCc2cccc3ccccc23)C1` [Example 30-54, 2-naphthalen-1-ylethyl 3-[4-carbamoyl-3-(phenylamino)-1H-pyrazol-1-yl]-3-(cyanomethyl)azetidine-1-carboxylate] as the compound, how does the IC50 read?
A: Its IC50 is 375 nM.

Q: How did the IC50 turn out when `CC(C)(C)COC(=O)N1CC(CC#N)(n2cc(C(N)=O)c(Nc3ccccc3)n2)C1` [Example 30-56, 2,2-dimethylpropyl 3-[4-carbamoyl-3-(phenylamino)-1H-pyrazol-1-yl]-3-(cyanomethyl)azetidine-1-carboxylate] was run?
A: The IC50 was 18 nM.

Q: How did the IC50 turn out when `N#CCC1(n2cc(C(N)=O)c(Nc3ccccc3)n2)CN(C(=O)OCCc2ccccc2)C1` [Example 30-58, 2-phenylethyl 3-[4-carbamoyl-3-(phenylamino)-1H-pyrazol-1-yl]-3-(cyanomethyl)azetidine-1-carboxylate] was run?
A: Its IC50 is 76 nM.

Q: For `N#CCC1(n2cc(C(N)=O)c(Nc3ccccc3)n2)CN(C(=O)OC2CCOCC2)C1` [Example 30-63, tetrahydro-2H-pyran-4-yl 3-[4-carbamoyl-3-(phenylamino)-1H-pyrazol-1-yl]-3-(cyanomethyl)azetidine-1-carboxylase], which IC50 is on record?
A: The IC50 was 11 nM.

Q: With `CN1CCN(CCOC(=O)N2CC(CC#N)(n3cc(C(N)=O)c(Nc4ccccc4)n3)C2)CC1` [Example 30-72, 2-(4-methylpiperazin-1-yl)ethyl 3-[4-carbamoyl-3-(phenylamino)-1H-pyrazol-1-yl]-3-(cyanomethyl)azetidine-1-carboxylate] as the compound, how does the IC50 read?
A: Its IC50 is 72 nM.

Q: For `CS(=O)(=O)c1ccc(Nc2nn(C3(CC#N)CN(C(=O)OC4CCCC4)C3)cc2C(N)=O)cc1` [Example 30-74, cyclopentyl 3-(4-carbamoyl-3-{[4-(methylsulfonyl)phenyl]amino}-1H-pyrazol-1-yl)-3-(cyanomethyl)azetidine-1-carboxylate], which IC50 is on record?
A: Its IC50 is 6 nM.

Q: Which IC50 does the source give for `N#CCC1(n2cc(C(N)=O)c(Nc3ccccc3)n2)CCN(C(=O)c2ccccn2)CC1` [Example 34-9, 1-[4-(cyanomethyl)-1-(pyridin-2-ylcarbonyl)piperidin-4-yl]-3-(phenylamino)-1H-pyrazole-4-carboxamide] here?
A: Its IC50 is 18 nM.

Q: `N#CCC1(n2cc(C(N)=O)c(Nc3ccccc3)n2)CCN(C(=O)c2cnccn2)CC1` [Example 34-11, 1-[4-(cyanomethyl)-1-(pyrazin-2-ylcarbonyl)piperidin-4-yl]-3-(phenylamino)-1H-pyrazole-4-carboxamide] was tested. Which IC50 did it give?
A: Its IC50 is 12 nM.

Q: With `N#CCC1(n2cc(C(N)=O)c(Nc3ccccc3)n2)CN(C(=O)c2ccccn2)C1` [Example 34-38, 1-[3-(cyanomethyl)-1-(pyridin-2-ylcarbonyl)azetidin-3-yl]-3-(phenylamino)-1H-pyrazole-4-carboxamide] as the compound, how does the IC50 read?
A: Its IC50 is 59 nM.

Q: `N#CCC1(n2cc(C(N)=O)c(Nc3ccc(F)cc3)n2)CCN(C(=O)CC(F)(F)F)CC1` [Example 35-1, 1-(4-(Cyanomethyl)-1-(3,3,3-trifluoropropanoyl)piperidin-4-yl)-3-(4-fluorophenylamino)-1H-pyrazole-4-carboxamide] was tested. Which IC50 did it give?
A: Its IC50 is 0.1 nM.

Q: For `N#CCC1(n2cc(C(N)=O)c(Nc3ccccc3)n2)CCN(S(=O)(=O)c2ccc(C(F)(F)F)cc2)CC1` [Example 37-13, 1-[4-(cyanomethyl)-1-{[4-(trifluoromethyl)phenyl]sulfonyl}piperidin-4-yl]-3-(phenylamino)-1H-pyrazole-4-carboxamide], which IC50 is on record?
A: Its IC50 is 3 nM.

Q: `CCOC(=O)C(C)NC(=O)N1CC(CC#N)(n2cc(C(N)=O)c(Nc3ccccc3)n2)C1` (centres unmarked) [Example 38-9, ethyl N-({3-[4-carbamoyl-3-(phenylamino)-1H-pyrazol-1-yl]-3-(cyanomethyl)azetidin-1-yl}carbonyl)alaninate] was tested. Which IC50 did it give?
A: The IC50 was 38 nM.

Q: `CCc1ccc(NC(=O)N2CC(CC#N)(n3cc(C(N)=O)c(Nc4ccccc4)n3)C2)cc1` [Example 38-34, 1-{3-(cyanomethyl)-1-[(4-ethylphenyl)carbamoyl]azetidin-3-yl}-3-(phenylamino)-1H-pyrazole-4-carboxamide] was tested. Which IC50 did it give?
A: The IC50 was 2 nM.

Q: Which IC50 does the source give for `Cc1ccc(F)cc1NC(=O)N1CC(CC#N)(n2cc(C(N)=O)c(Nc3ccccc3)n2)C1` [Example 38-38, 1-{3-(cyanomethyl)-1-[(5-fluoro-2-methylphenyl)carbamoyl]azetidin-3-yl}-3-(phenylamino)-1H-pyrazole-4-carboxamide] here?
A: The IC50 was 13 nM.

Q: Which IC50 does the source give for `N#CCC1(n2cc(C(N)=O)c(Nc3ccccc3)n2)CCN(C(=O)Nc2ccc(C#N)cc2)CC1` [Example 38-47, 4-[4-carbamoyl-3-(phenylamino)-1H-pyrazol-1-yl]-4-(cyanomethyl)-N-(4-cyanophenyl)piperidine-1-carboxamide] here?
A: Its IC50 is 0.2 nM.

Q: With `N#CCC1(n2cc(C(N)=O)c(Nc3ccc(C(F)(F)F)cc3)n2)CCC(N2CC(F)C2)CC1` (centres unmarked) [Example 39-2, 1-[1-(cyanomethyl)-4-(3-fluoroazetidin-1-yl)cyclohexyl]-3-{[4-(trifluoromethyl)phenyl]amino}-1H-pyrazole-4-carboxamide] as the compound, how does the IC50 read?
A: The IC50 was 0.1 nM.

Q: `N#CCC1(n2cc(C(N)=O)c(Nc3ccnc(F)c3)n2)CCC(Nc2ccccn2)CC1` (stereo not drawn) [Example 40-4, Cis or trans 1-[1-(cyanomethyl)-4-(pyridin-2-ylamino)cyclohexyl]-3-[(2-fluoropyridin-4-yl)amino]-1H-pyrazole-4-carboxamide] was tested. Which IC50 did it give?
A: Its IC50 is 102 nM.

Q: For `N#CCC1(n2cc(C(N)=O)c(Nc3ccnc(F)c3)n2)CCC(N2CCC(O)CC2)CC1` (stereo not drawn) [Example 40-13, Cis or trans 1-[1-(cyanomethyl)-4-(4-hydroxypiperidin-1-yl)cyclohexyl]-3-[(2-fluoropyridin-4-yl)amino]-1H-pyrazole-4-carboxamide], which IC50 is on record?
A: Its IC50 is 115 nM.

Q: For `N#CCC1(n2cc(C(N)=O)c(Nc3ccnc(F)c3)n2)CCC(Nc2ccccc2F)CC1` (stereo not drawn) [Example 40-17, Cis or trans 1-{1-(cyanomethyl)-4-[(2-fluorophenyl)amino]cyclohexyl}-3-[(2-fluoropyridin-4-yl)amino]-1H-pyrazole-4-carboxamide], which IC50 is on record?
A: The IC50 was 0.04 nM.

Q: `N#CCC1(n2cc(C(N)=O)c(Nc3ccnc(F)c3)n2)CCC(Nc2ccccn2)CC1` (stereo not drawn) [Example 40-22, Cis or trans 1-[1-(cyanomethyl)-4-(pyridin-2-ylamino)cyclohexyl]-3-[(2-fluoropyridin-4-yl)amino]-1H-pyrazole-4-carboxamide] was tested. Which IC50 did it give?
A: Its IC50 is 4 nM.

Q: Which IC50 does the source give for `N#CCC1(n2cc(C(N)=O)c(Nc3ccnc(F)c3)n2)CCC(Nc2ccccc2F)CC1` (stereo not drawn) [Example 40-24, Cis or trans 1-{1-(cyanomethyl)-4-[(2-fluorophenyl)amino]cyclohexyl}-3-[(2-fluoropyridin-4-yl)amino]-1H-pyrazole-4-carboxamide] here?
A: Its IC50 is 8 nM.

Q: `N#CCC1(n2cc(C(N)=O)c(Nc3ccc(F)cc3)n2)CCC(Nc2ccc(F)c(F)c2)CC1` (stereo not drawn) [Example 40-35, Cis or trans 1-{1-(cyanomethyl)-4-[(3,4-difluorophenyl)amino]cyclohexyl}-3-[(4-fluorophenyl)amino]-1H-pyrazole-4-carboxamide] was tested. Which IC50 did it give?
A: Its IC50 is 0.8 nM.

Same assay, conditions: read-out: JAK1 IC50

Q: `N#CCC1(n2cc(C(N)=O)c(Nc3ccc(S(=O)(=O)C(F)F)cc3)n2)CCC(Nc2cccnc2)CC1` (stereo not drawn) [Example 40-8, Cis or trans 1-[1-(cyanomethyl)-4-(pyridin-3-ylamino)cyclohexyl]-3-({4-[(difluoromethyl)sulfonyl]phenyl}amino)-1H-pyrazole-4-carboxamide] was tested. Which IC50 did it give?
A: The IC50 was 0.3 nM.
